Molecules are shown by their SMILES. pIC50: −log10 of the molar value.

Assay [1] addresses T1, Recombinant human integrin α5β1 (Homo sapiens, UniProt P05556+P08648).
T1 construct: purchased R&D Systems 3230-A5
The assay is described as follows: Solid Phase Receptor Assay for α5β1 Function. To be noted: binding to fibronectin-coated plate; read-out: α5β1 SPRA IC50. How it is done:
Solid Phase Receptor Assay for α5β1 Function.
Wells were washed 3 times with 150 μL TBS+ and 150 μl of blocking buffer (TBS+ with 1% bovine serum albumin, Sigma A7906) were added. The plate was incubated for 1 hr at 37° C. and then washed 3× with TBS+ buffer. […] Compounds were diluted 1:100 into the integrin solution and then 50 μL added to empty wells of the washed fibronectin-coated plate according to a standard template with each sample repeated in triplicate. After incubation for two hours at room temperature, the plate was washed 3× with 150 μL of TBS+ buffer. To each well, 50 μL of biotinylated anti-α5 antibody (R&D Systems, BAF1864) at 0.5 ug/mL in TBS+/0.1% BSA were added and the plate covered and incubated for 1 hr at room temperature. After washing the plate 3× with 150 μL of TBS+ buffer, 50 μL of streptavidin-conjugated horseradish peroxidase (R&D Systems, DY998) diluted in TBS+ blocking buffer were added to the wells and the plate incubated for 20 min at room temperature. The plate was washed 3× with TBS+ buffer followed by 50 μL of room temperature TMB substrate (Sigma, T444) added to each well and the plate incubated for 20 min at room temperature. The reaction was optionally stopped with 25 μL of Stop Solution (Sigma S5689). Plates were read by colorimetric detection at 650 nm wavelength using a Tecan Safire II plate reader.

Assay [2] addresses T2, Recombinant human integrin αvβ5 (Homo sapiens, UniProt P06756+P18084).
T2 construct: purchased R&D Systems 2528-AV
The assay can be described thus: Solid Phase Receptor Assay for αvβ5 Function. To be noted: binding to vitronectin-coated plate; read-out: αvβ5 SPRA IC50. How it is done: Solid Phase Receptor Assay for αvβ5 Function.
(§1) Wells were washed 3 times with 150 μL TBS+ and 150 μL of blocking buffer (TBS+ with 1% bovine serum albumin, Sigma A7906) were added. The plate was incubated for 1 hr at 37° C. and then washed 3× with TBS+ buffer. […] Compounds were diluted 1:100 into the integrin solution and then 50 μL added to empty wells of the washed vitronectin-coated plate according to a standard template with each sample repeated in triplicate. After incubation for two hours at room temperature, the plate was washed 3× with 150 μL of TBS+ buffer. To each well, 50 μL of biotinylated anti-αv antibody (R&D Systems, BAF1219) at 0.5 μg/mL in TBS+/0.1% BSA at 0.5 μg/mL were added and the plate covered and incubated for 1 hr at room temperature. After washing the plate 3× with 150 μL of TBS+ buffer, 50 μL of streptavidin-conjugated horseradish peroxidase (R&D Systems DY998) diluted in TBS+ blocking buffer were added to the wells and the plate incubated for 20 min at room temperature. The plate was washed 3× with TBS+ buffer followed by 50 μL of TMB substrate (Sigma T4444) added to each well and the plate incubated for 20 min at room temperature. The reaction was optionally stopped with 25 μL of Stop Solution (Sigma S5689). Plates were read by colorimetric detection at 650 nm wavelength using a Tecan Safire II plate reader.

For assay [3], the target named is T3, Recombinant human integrin αvβ8 (Homo sapiens, UniProt P06756+P26012).
T3 construct: purchased R&D Systems 4135-AV
T3 sequence (P06756 31-992 limits assumed): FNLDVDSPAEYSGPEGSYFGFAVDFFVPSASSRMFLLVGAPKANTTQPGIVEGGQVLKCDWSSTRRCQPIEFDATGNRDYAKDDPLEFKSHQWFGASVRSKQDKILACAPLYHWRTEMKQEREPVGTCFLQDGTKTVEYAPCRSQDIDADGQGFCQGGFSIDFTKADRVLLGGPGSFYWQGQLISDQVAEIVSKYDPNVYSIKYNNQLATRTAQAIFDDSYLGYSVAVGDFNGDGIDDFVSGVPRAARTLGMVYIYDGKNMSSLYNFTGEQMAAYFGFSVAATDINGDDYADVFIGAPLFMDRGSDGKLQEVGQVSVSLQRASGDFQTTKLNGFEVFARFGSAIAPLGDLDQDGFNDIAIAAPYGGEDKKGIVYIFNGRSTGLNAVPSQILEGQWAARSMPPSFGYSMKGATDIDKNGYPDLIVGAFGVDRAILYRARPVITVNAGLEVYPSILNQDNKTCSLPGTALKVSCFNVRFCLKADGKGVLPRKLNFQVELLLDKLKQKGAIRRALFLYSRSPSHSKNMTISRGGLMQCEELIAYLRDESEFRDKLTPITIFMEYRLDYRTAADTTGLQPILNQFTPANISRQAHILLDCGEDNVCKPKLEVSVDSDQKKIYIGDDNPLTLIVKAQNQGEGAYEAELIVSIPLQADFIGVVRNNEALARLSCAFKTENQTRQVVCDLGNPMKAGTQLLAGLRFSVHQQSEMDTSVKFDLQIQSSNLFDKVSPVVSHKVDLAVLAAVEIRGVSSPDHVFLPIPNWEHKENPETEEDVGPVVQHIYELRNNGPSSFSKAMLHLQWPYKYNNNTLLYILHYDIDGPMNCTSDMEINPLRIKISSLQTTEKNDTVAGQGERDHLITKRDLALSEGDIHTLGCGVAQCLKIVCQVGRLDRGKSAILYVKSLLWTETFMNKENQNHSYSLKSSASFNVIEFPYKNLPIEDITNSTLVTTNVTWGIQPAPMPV
T3 sequence (P26012 43-684 limits assumed): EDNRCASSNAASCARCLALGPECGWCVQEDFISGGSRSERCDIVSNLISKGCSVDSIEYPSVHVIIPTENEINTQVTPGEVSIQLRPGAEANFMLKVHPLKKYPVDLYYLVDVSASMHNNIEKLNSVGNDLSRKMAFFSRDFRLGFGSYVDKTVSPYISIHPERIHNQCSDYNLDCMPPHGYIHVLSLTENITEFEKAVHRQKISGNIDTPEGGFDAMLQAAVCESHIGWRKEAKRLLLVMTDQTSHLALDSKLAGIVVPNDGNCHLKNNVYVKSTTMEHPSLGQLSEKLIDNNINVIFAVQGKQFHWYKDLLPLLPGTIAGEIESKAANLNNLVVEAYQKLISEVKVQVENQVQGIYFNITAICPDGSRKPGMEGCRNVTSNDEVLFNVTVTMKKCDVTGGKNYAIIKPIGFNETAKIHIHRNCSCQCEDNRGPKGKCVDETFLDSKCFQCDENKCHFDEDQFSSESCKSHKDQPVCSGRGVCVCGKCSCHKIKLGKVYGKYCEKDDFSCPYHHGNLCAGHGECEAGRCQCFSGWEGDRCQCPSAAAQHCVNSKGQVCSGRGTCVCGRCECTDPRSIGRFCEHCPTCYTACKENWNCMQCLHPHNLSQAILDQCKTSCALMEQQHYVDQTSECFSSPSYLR
The assay is described as follows: Solid Phase Receptor Assay for αvβ8 Function. To be noted: binding to LAP-coated plate; read-out: αvβ8 SPRA IC50. How it is done: Solid Phase Receptor Assay for αvβ8 Function.
Wells were washed 3 times with 150 μL TBS+ and 150 μL of blocking buffer (TBS+ with 1% bovine serum albumin, Sigma A7906) were added. The plate was incubated for 1 hr at 37° C. and then washed 3× with TBS+. […] Compounds were diluted 1:100 into the integrin solution and 50 μL added to empty wells of the washed LAP-coated plate according to a standard template with each sample repeated in triplicate. After incubation for two hours at room temperature, the plate was washed 3× with 150 μL of TBS+. To each well, 50 μL of biotinylated anti-αv antibody (R&D Systems, BAF1219) at 1 μg/mL in TBS+/0.1% BSA were added and the plate was covered and incubated for 1 hr at room temperature. After washing the plate 3× with 150 μL of TBS+ buffer, 50 μL of streptavidin-conjugated horseradish peroxidase (R&D Systems, DY998) diluted in TBS+ blocking buffer were added to the wells and the plate incubated for 20 min at room temperature. The plate was washed 3× with TBS+ followed by 50 μL of TMB substrate (Sigma T4444) added to each well and the plate incubated for 20 min at room temperature. The reaction was optionally stopped with 25 μL of Stop Solution (Sigma S5689). Plates were read by colorimetric detection at 650 nm wavelength using a Tecan Safire II plate reader.

The target of assay [4] is T4, Recombinant human integrin αvβ6 (Homo sapiens, UniProt P06756+P18564).
T4 construct: purchased R&D Systems 3817-AV
T4 sequence (P06756 31-992 limits assumed): as the sequence (P06756 31-992 limits assumed) above
T4 sequence (P18564 22-707 limits assumed): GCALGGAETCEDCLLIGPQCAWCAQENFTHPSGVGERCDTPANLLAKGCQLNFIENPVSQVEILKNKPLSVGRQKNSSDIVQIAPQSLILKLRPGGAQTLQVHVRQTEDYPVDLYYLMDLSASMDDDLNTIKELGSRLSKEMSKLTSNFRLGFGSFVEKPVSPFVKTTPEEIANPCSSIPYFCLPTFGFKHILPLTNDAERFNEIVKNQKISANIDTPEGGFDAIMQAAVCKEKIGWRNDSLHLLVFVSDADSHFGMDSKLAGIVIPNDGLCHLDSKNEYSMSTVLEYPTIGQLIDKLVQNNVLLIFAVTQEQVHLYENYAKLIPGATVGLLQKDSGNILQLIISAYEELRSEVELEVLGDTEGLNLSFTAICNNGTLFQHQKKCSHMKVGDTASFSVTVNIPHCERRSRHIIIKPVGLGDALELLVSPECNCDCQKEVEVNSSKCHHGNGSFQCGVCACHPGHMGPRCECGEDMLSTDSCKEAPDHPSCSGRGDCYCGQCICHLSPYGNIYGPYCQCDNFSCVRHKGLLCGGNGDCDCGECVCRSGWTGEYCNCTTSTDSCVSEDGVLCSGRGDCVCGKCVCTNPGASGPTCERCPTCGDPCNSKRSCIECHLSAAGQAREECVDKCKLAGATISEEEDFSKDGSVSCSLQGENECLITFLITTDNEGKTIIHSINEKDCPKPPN
The assay is described as follows: Solid Phase Receptor Assay for αvβ6 Function. To be noted: binding to LAP-coated plate; read-out: αvβ6 SPRA IC50. As for the experimental part:
Solid Phase Receptor Assay for αvβ6 Function.
as §1, with “150 μL TBS+, and 150” for “150 μL TBS+ and 150”, “at 37° C., and then” for “at 37° C. and then”, “the washed LAP-coated plate according” for “the washed vitronectin-coated plate according”, “TBS+/0.1% BSA were added” for “TBS+/0.1% BSA at 0.5 μg/mL were added”, “the plate was covered and” for “the plate covered and”, “peroxidase (R&D Systems, DY998) diluted” for “peroxidase (R&D Systems DY998) diluted”

T2 sequence (P06756 31-992 limits assumed): as the sequence (P06756 31-992 limits assumed) above
T2 sequence (P18084 24-719 limits assumed): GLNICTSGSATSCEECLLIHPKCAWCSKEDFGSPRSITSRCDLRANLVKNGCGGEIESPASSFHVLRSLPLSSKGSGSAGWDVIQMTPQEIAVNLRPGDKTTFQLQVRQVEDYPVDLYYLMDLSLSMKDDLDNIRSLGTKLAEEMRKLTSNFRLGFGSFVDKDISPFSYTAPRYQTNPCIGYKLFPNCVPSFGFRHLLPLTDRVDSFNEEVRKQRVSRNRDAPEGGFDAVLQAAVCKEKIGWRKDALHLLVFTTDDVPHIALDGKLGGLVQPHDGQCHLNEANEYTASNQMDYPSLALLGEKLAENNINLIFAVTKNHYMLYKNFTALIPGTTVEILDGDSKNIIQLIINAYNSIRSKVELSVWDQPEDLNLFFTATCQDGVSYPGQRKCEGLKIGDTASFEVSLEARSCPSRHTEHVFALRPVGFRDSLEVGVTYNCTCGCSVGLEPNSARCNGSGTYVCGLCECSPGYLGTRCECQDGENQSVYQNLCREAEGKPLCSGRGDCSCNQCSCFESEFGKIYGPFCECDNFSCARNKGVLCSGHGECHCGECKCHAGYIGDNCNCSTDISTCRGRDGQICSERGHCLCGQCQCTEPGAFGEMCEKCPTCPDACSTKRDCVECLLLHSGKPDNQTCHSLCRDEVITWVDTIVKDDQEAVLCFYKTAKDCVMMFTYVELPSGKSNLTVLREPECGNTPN
T1 sequence (P08648 42-995 limits assumed): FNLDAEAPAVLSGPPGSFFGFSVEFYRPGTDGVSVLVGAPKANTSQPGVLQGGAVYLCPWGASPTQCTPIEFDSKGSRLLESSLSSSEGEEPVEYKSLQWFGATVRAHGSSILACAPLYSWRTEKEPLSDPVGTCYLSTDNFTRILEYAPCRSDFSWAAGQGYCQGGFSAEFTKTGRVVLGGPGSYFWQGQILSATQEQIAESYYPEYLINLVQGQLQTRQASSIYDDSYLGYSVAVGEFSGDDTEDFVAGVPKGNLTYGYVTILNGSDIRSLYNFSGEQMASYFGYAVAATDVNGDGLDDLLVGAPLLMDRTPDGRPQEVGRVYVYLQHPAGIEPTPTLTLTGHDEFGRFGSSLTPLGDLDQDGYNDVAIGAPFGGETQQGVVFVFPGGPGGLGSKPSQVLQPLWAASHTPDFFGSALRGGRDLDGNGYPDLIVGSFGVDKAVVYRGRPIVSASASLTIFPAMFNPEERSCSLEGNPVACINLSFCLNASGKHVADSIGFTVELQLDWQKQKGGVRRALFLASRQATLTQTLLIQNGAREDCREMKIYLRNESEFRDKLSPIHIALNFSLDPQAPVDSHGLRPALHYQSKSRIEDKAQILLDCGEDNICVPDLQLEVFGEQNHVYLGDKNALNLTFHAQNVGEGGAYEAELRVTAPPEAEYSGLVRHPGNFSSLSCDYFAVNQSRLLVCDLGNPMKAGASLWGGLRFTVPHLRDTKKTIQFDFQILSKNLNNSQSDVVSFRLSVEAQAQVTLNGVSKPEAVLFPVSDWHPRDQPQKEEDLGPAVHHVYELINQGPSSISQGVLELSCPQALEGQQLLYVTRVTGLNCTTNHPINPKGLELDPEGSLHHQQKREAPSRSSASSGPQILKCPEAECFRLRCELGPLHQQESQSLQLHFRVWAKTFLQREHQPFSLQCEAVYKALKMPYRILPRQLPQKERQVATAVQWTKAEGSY
T1 sequence (P05556 21-728 limits assumed): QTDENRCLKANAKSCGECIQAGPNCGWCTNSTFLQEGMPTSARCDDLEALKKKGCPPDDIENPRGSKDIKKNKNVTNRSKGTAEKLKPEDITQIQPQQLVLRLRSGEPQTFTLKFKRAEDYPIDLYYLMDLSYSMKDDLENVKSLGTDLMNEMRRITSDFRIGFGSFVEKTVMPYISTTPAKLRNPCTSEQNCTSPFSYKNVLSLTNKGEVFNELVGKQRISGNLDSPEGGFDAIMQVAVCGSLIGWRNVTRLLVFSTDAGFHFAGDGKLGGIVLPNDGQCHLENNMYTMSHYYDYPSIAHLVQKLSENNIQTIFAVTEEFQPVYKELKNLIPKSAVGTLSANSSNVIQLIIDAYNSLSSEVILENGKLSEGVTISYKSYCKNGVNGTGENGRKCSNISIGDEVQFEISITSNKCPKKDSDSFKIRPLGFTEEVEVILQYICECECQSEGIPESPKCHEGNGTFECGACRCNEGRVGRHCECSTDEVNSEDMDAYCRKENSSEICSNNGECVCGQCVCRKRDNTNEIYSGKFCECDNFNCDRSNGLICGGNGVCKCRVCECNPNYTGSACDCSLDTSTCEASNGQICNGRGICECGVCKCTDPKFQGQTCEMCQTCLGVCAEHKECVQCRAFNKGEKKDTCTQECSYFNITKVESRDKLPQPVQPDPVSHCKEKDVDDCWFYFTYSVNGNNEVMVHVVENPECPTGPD

For the compound `CC(C)(C)c1cc(Br)cc([C@H](CC(=O)O)NC(=O)CNC(=O)c2cccc(NC(=N)N)c2)c1` [Example 5, (S)-3-(3-bromo-5-(tert-butyl)phenyl)-3-(2-(3-guanidinobenzamido)acetamido) propanoic acid], the negative logarithm of the IC50 (pIC50) was 9.22 in assay [1], 8.80 in assay [2], 9.70 in assay [3] and 9.22 in assay [4].
`CC(C)(C)c1cc(-c2cccnc2)cc([C@H](CC(=O)O)NC(=O)CNC(=O)c2cc(O)cc(NC3=NCC(O)CN3)c2)c1` (stereo partly drawn) [Example 18, (3S)-3-(3-(tert-butyl)-5-(pyridin-3-yl)phenyl)-3-(2-(3-hydroxy-5-((5-hydroxy-1,4,5,6-tetrahydropyrimidin-2-yl)amino)benzamido)acetamido)propanoic acid]: the pIC50 is 9.40 in assay [1], 7.68 in assay [2], 9.52 in assay [3] and 9.22 in assay [4].
On the same counts, the results for `CC(C)(C)c1cc([C@H](CC(=O)O)NC(=O)CNC(=O)c2cncc(NC(=N)N)c2)cc(C(C)(C)C)c1` [Example 10, (S)-3-(3,5-di-tert-butylphenyl)-3-(2-(5-guanidinonicotinamido)acetamido)propanoic acid] are 9.30, 7.15, 9.70 and 8.92.
On the same counts, the results for `CC(C)(CO)c1cc(Cl)cc([C@H](CC(=O)O)NC(=O)CNC(=O)c2cc(O)cc(NC3=NCC(O)CN3)c2)c1` (stereo partly drawn) [Example 15, (3S)-3-(3-chloro-5-(1-hydroxy-2-methylpropan-2-yl)phenyl)-3-(2-(3-hydroxy-5-((5-hydroxy-1,4,5,6-tetrahydropyrimidin-2-yl)amino)benzamido)acetamido)propanoic acid] are 9.40, 9.40, 9.52 and 9.40.
Taken in the same sequence, the figures for `CC(C)(C#N)c1cc(Br)cc([C@H](CC(=O)O)NC(=O)CNC(=O)c2cc(O)cc(NC3=NCC(O)CN3)c2)c1` (stereo partly drawn) [Example 11, (3S)-3-(3-bromo-5-(2-cyanopropan-2-yl)phenyl)-3-(2-(3-hydroxy-5-((5-hydroxy-1,4,5,6-tetrahydropyrimidin-2-yl)amino)benzamido)acetamido)propanoic acid] were 9.52, 9.15, 9.70 and 9.30.
Turning to `CC(C)(C)c1cc(Br)cc([C@H](CC(=O)O)NC(=O)CNC(=O)c2cc(O)cc(NC3=NCC(O)CN3)c2)c1O` (stereo partly drawn) [Example 2, (3S)-3-(5-bromo-3-(tert-butyl)-2-hydroxyphenyl)-3-(2-(3-hydroxy-5-((5-hydroxy-1,4,5,6-tetrahydropyrimidin-2-yl)amino)benzamido)acetamido)propanoic acid], the pIC50 in assay [1] is 9.30; in assay [2], 9.00; in assay [3], 10.00; in assay [4] it was 9.15.
As to `CC(C)(C)c1cc(Br)cc([C@H](CC(=O)O)NC(=O)CNC(=O)c2cccc(NC3=NCCN3)c2)c1` [Example 7, (S)-3-(3-bromo-5-(tert-butyl)phenyl)-3-(2-(3-((4,5-dihydro-1H-imidazol-2-yl)amino)benzamido)acetamido)propanoic acid], the pIC50 in assay [1] is 9.15; in assay [2], 9.30; in assay [3], 10.00; in assay [4], 9.70.
In the case of `COCC(C)(C)c1cc(Cl)cc([C@H](CC(=O)O)NC(=O)CNC(=O)c2cc(O)cc(NC3=NCC(O)CN3)c2)c1` (stereo partly drawn) [Example 14, (3S)-3-(3-chloro-5-(1-methoxy-2-methylpropan-2-yl)phenyl)-3-(2-(3-hydroxy-5-((5-hydroxy-1,4,5,6-tetrahydropyrimidin-2-yl)amino)benzamido)acetamido)propanoic acid], the pIC50 was 9.70 in assay [1], 9.52 in assay [2], 9.52 in assay [3] and 9.40 in assay [4].
As to `CC(C)(O)c1cc(Cl)cc([C@H](CC(=O)O)NC(=O)CNC(=O)c2cc(O)cc(NC3=NCC(O)CN3)c2)c1` (stereo partly drawn) [Example 4, (3S)-3-(3-chloro-5-(2-hydroxypropan-2-yl)phenyl)-3-(2-(3-hydroxy-5-((5-hydroxy-1,4,5,6-tetrahydropyrimidin-2-yl)amino)benzamido)acetamido)propanoic acid], the pIC50 in assay [1] is 9.15; in assay [2], 9.40; in assay [3], 9.22; in assay [4], 9.30.
On the same counts, the results for `CC(C)(C)c1cc(Br)cc([C@H](CC(=O)O)NC(=O)CNC(=O)c2cc(O)cc(NC3=NCCN3)c2)c1` [Example 9, (S)-3-(3-bromo-5-(tert-butyl)phenyl)-3-(2-(3-((4,5-dihydro-1H-imidazol-2-yl)amino)-5-hydroxybenzamido)acetamido)propanoic acid] are 9.30, 8.92, 10.00 and 9.30.
On the same counts, the results for `CC(C)(C)c1cc(Br)cc([C@H](CC(=O)O)NC(=O)CNC(=O)c2cncc(NC3=NCC(O)CN3)c2)c1` (stereo partly drawn) [Example 8, (3S)-3-(3-bromo-5-(tert-butyl)phenyl)-3-(2-(5-((5-hydroxy-1,4,5,6-tetrahydropyrimidin-2-yl)amino)nicotinamido)acetamido)propanoic acid] are 9.40, 9.30, 10.00 and 9.30.
Taken in the same sequence, the figures for `CC(C)(C)c1cc(-c2cncnc2)cc([C@H](CC(=O)O)NC(=O)CNC(=O)c2cc(O)cc(NC3=NCC(O)CN3)c2)c1` (stereo partly drawn) [Example 19, (3S)-3-(3-(tert-butyl)-5-(pyrimidin-5-yl)phenyl)-3-(2-(3-hydroxy-5-((5-hydroxy-1,4,5,6-tetrahydropyrimidin-2-yl)amino)benzamido)acetamido)propanoic acid] were 9.40, 7.68, 9.40 and 9.15.
